Laboratory results taken from US8809335B2, “Pyrazolopyrimidine kinase inhibitors” (Vertex Pharmaceuticals Incorporated, priority 2010, dated 2014).
pKi: −log10 of the molar value.

Columns and labels:
Type in all cases: biochemical
[1] = molecular target: PKC theta kinase (Homo sapiens, UniProt Q04759); assay: PKC theta coupled-enzyme kinase assay (NADH consumption); settings: 240 μM ATP, 18 nM PKC theta, 30° C.
Description: An assay buffer solution was prepared which consisted of 100 mM HEPES (pH 7.5), 10 mM MgCl2, 25 mM NaCl, 0.1 mM EDTA and 0.01% Brij. An enzyme buffer containing reagents to final assay concentrations of 0.00001% Triton X-100, 200 μg/mL Phosphatidylserine, 20 μg/mL Diacylglycerol, 360 μM NADH, 3 mM phosphoenolpyruvate, 70 μg/mL pyruvate kinase, 24 μg/mL lactate dehydrogenase, 2 mM DTT, 100 μM substrate peptide (ERMRPRKRQGSVRRRV SEQ ID NO. 1) and 18 nM PKC theta kinase was prepared in assay buffer. To 60 μL of this enzyme buffer, in a 384 well plate, was added 2 μL of VRT stock solution in DMSO. The mixture was allowed to equilibrate for 10 mins at 30° C. The enzyme reaction was initiated by the addition of 5 μL stock ATP solution prepared in assay buffer to a final assay concentration of 240 μM. Initial rate data was determined from the rate of change of absorbance at 340 nm (corresponding to stoichiometric consumption of NADH) using a Molecular Devices Spectramax plate reader (Sunnyvale, Calif.) over 15 mins at 30° C. For each Ki determination 12 data points covering the VRT concentration range of 0-20 μM were obtained in duplicate (DMSO stocks were prepared from an initial 10 mM VRT stock with subsequent 1:2 serial dilutions). Ki values were calculated from initial rate data by non-linear regression using the Prism software package (Prism 4.0a, Graphpad Software, San Diego, Calif.).

[2] = molecular target: PKC delta kinase (Homo sapiens, UniProt Q05655); assay: PKC delta coupled-enzyme kinase assay (NADH consumption); settings: 150 μM ATP, 46 nM PKC delta, 30° C.
Chain of PKC delta kinase (Q05655 whole entry): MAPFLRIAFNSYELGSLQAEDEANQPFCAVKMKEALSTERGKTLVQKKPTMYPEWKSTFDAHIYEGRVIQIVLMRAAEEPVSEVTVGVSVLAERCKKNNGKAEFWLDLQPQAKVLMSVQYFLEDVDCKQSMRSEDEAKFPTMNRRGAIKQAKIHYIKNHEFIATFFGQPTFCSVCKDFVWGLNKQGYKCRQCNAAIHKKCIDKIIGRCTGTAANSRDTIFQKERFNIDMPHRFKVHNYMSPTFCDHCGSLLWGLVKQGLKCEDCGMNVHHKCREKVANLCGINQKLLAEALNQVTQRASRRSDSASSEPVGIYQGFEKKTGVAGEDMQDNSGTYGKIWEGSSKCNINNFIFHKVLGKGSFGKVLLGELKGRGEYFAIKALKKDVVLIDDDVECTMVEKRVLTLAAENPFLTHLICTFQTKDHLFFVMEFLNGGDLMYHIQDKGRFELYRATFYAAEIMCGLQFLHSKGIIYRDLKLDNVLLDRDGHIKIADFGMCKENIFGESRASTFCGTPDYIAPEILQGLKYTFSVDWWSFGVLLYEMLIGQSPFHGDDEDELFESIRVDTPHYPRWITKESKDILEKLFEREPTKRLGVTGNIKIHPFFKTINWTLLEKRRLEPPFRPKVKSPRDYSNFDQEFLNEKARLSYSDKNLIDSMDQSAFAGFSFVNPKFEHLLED
Description: An assay buffer solution was prepared which consisted of 100 mM HEPES (pH 7.5), 10 mM MgCl2, 25 mM NaCl, 0.1 mM EDTA and 0.01% Brij. An enzyme buffer containing reagents to final assay concentrations of 0.002% Triton X-100, 200 μg/mL Phosphatidylserine, 20 μg/mL Diacylglycerol, 360 μM NADH, 3 mM phosphoenolpyruvate, 70 μg/mL pyruvate kinase, 24 μg/mL lactate dehydrogenase, 2 mM DTT, 150 μM substrate peptide (ERMRPRKRQGSVRRRV SEQ ID NO. 2) and 46 nM PKC delta kinase was prepared in assay buffer. To 16 μL of this enzyme buffer, in a 384 well plate, was added 1 μL of VRT stock solution in DMSO. The mixture was allowed to equilibrate for 10 mins at 30° C. The enzyme reaction was initiated by the addition of 16 μL stock ATP solution prepared in assay buffer to a final assay concentration of 150 μM. Initial rate data was determined from the rate of change of absorbance at 340 nm (corresponding to stoichiometric consumption of NADH) using a Molecular Devices Spectramax plate reader (Sunnyvale, Calif.) over 15 mins at 30° C. For each Ki determination 12 data points covering the VRT concentration range of 0-20 μM were obtained in duplicate (DMSO stocks were prepared from an initial 10 mM VRT stock with subsequent 1:2 serial dilutions). Ki values were calculated from initial rate data by non-linear regression using the Prism software package (Prism 4.0a, Graphpad Software, San Diego, Calif.).

[3] = molecular target: PKC alpha kinase (Homo sapiens, UniProt P17252); assay: PKC alpha coupled-enzyme kinase assay (NADH consumption); settings: 130 μM ATP, 4.5 nM PKC alpha, 30° C.
Description: An assay buffer solution was prepared which consisted of 100 mM HEPES (pH 7.5), 10 mM MgCl2, 25 mM NaCl, 0.1 mM EDTA, 100 μM CaCl2 and 0.01% Brij. An enzyme buffer containing reagents to final assay concentrations of 0.002% Triton X-100, 100 μg/mL Phosphatidylserine, 20 μg/mL Diacylglycerol, 360 μM NADH, 3 mM phosphoenolpyruvate, 70 μg/mL pyruvate kinase, 24 μg/mL lactate dehydrogenase, 2 mM DTT, 150 μM substrate peptide (RRRRRKGSFKRKA SEQ ID NO. 1) and 4.5 nM PKC alpha kinase was prepared in assay buffer. To 16 μL of this enzyme buffer, in a 384 well plate, was added 1 μL of VRT stock solution in DMSO. The mixture was allowed to equilibrate for 10 mins at 30° C. The enzyme reaction was initiated by the addition of 16 μL stock ATP solution prepared in assay buffer to a final assay concentration of 130 μM. Initial rate data was determined from the rate of change of absorbance at 340 nm (corresponding to stoichiometric consumption of NADH) using a Molecular Devices Spectramax plate reader (Sunnyvale, Calif.) over 15 mins at 30° C. […] Ki values were calculated from initial rate data by non-linear regression using the Prism software package (Prism 4.0a, Graphpad Software, San Diego, Calif.).

Chain of PKC theta kinase (Q04759 whole entry): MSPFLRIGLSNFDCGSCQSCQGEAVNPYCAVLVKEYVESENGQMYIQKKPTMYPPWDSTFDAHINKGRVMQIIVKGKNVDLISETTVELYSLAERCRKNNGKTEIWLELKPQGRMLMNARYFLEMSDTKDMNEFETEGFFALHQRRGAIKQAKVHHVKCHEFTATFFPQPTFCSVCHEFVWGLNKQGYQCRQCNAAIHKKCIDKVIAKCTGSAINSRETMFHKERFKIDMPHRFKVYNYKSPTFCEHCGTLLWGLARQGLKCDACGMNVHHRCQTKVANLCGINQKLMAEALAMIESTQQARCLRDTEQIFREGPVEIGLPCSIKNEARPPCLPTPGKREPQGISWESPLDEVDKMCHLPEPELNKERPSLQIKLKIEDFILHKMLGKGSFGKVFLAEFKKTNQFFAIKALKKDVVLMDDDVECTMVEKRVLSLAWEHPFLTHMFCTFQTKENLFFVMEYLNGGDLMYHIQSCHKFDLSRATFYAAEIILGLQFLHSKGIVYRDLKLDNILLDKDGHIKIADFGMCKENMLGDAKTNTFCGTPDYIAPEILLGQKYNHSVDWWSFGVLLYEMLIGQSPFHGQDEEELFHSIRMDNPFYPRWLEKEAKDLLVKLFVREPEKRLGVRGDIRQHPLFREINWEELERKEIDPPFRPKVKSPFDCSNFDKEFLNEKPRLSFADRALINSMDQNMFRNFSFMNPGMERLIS

| pKi [1] | pKi [2] | pKi [3] | Compound |
| --- | --- | --- | --- |
| > 5.55 | < 5.90 | < 5.90 | CCOc1ncnc2[nH]nc(-c3cccc(N4CCNC(CC(C)C)C4)n3)c12 (stereo not drawn) [Compound 1, 4-ethoxy-3-(6-(3-isobutylpiperazin-1-yl)pyridin-2-yl)-1H-pyrazolo[3,4-d]pyrimidine] |
| > 9.00 | > 6.30 | > 5.55 | CC(C)[C@@](C)(O)[C@@H]1CN(c2nc(-c3n[nH]c4ncncc34)c(F)cc2F)CCN1 [Compound 2, (R)-2-((S)-4-(3,5-difluoro-6-(1H-pyrazolo[3,4-d]pyrimidin-3-yl)pyridin-2-yl)piperazin-2-yl)-3-methylbutan-2-ol] |
